Assay results from ChEMBL document CHEMBL4138123, “Design, synthesis and biological evaluation of novel pyrazolochalcones as potential modulators of PI3K/Akt/mTOR pathway and inducers of apoptosis in breast cancer cells” (Eur J Med Chem, 2017).

Key:
Assay type in all cases: functional
NCI-H460 [1] = test: Cytotoxicity against human NCI-H460 cells assessed as growth inhibition after 48 hrs by sulforhodamine B assay; details: NCI-H460, 48 h
UACC-62 = test: Cytotoxicity against human UACC62 cells assessed as growth inhibition after 48 hrs by sulforhodamine B assay; details: UACC-62, 48 h
DU-145 = test: Cytotoxicity against human DU145 cells assessed as growth inhibition after 48 hrs by sulforhodamine B assay; details: DU-145, 48 h
SF-539 = test: Cytotoxicity against human SF539 cells assessed as growth inhibition after 48 hrs by sulforhodamine B assay; details: SF-539, 48 h
HT-29 = test: Cytotoxicity against human HT-29 cells assessed as growth inhibition after 48 hrs by sulforhodamine B assay; details: HT-29, 48 h
MCF7 [2] = test: Cytotoxicity against human MCF7 cells assessed as cell growth at 100 uM after 48 hrs by sulforhodamine B assay relative to control; details: MCF7, 48 h, read-out: Activity
SK-MEL-5 = test: Cytotoxicity against human SK-MEL-5 cells assessed as cell growth at 0.01 uM after 48 hrs by sulforhodamine B assay relative to control; details: SK-MEL-5, 48 h, read-out: Activity
UACC-257 [3] = test: Cytotoxicity against human UACC257 cells assessed as cell growth at 10 uM after 48 hrs by sulforhodamine B assay relative to control; details: UACC-257, 48 h, read-out: Activity
A498 = test: Cytotoxicity against human A498 cells assessed as cell growth at 0.01 uM after 48 hrs by sulforhodamine B assay relative to control; details: A498, 48 h, read-out: Activity
OVCAR-5 = test: Cytotoxicity against human OVCAR5 cells assessed as cell growth at 10 uM after 48 hrs by sulforhodamine B assay relative to control; details: OVCAR-5, 48 h, read-out: Activity
MDA-MB-231 = test: Cytotoxicity against human MDA-MB-231 cells assessed as cell growth at 100 uM after 48 hrs by sulforhodamine B assay relative to control; details: MDA-MB-231, 48 h, read-out: Activity
HCC 2998 = test: Cytotoxicity against human HCC2998 cells assessed as cell growth at 0.1 uM after 48 hrs by sulforhodamine B assay relative to control; details: HCC 2998, 48 h, read-out: Activity
OVCAR-3 = test: Cytotoxicity against human OVCAR3 cells assessed as cell growth at 0.01 uM after 48 hrs by sulforhodamine B assay relative to control; details: OVCAR-3, 48 h, read-out: Activity
Hs-578T = test: Cytotoxicity against human Hs 578T cells assessed as cell growth at 10 uM after 48 hrs by sulforhodamine B assay relative to control; details: read-out: Activity
TK-10 [4] = test: Cytotoxicity against human TK10 cells assessed as cell growth at 1 uM after 48 hrs by sulforhodamine B assay relative to control; details: TK-10, 48 h, read-out: Activity
K562 = test: Cytotoxicity against human K562 cells assessed as cell growth at 0.01 uM after 48 hrs by sulforhodamine B assay relative to control; details: K562, 48 h, read-out: Activity
NCI-H460 [5] = test: Cytotoxicity against human NCI-H460 cells assessed as cell growth at 0.1 uM after 48 hrs by sulforhodamine B assay relative to control; details: NCI-H460, 48 h, read-out: Activity
UO-31 = test: Cytotoxicity against human UO31 cells assessed as cell growth at 1 uM after 48 hrs by sulforhodamine B assay relative to control; details: UO-31, 48 h, read-out: Activity
MCF7 [6] = test: Cytotoxicity against human MCF7 cells assessed as cell growth at 1 uM after 48 hrs by sulforhodamine B assay relative to control; details: MCF7, 48 h, read-out: Activity
TK-10 [7] = test: Cytotoxicity against human TK10 cells assessed as cell growth at 0.1 uM after 48 hrs by sulforhodamine B assay relative to control; details: TK-10, 48 h, read-out: Activity
HCT-116 = test: Cytotoxicity against human HCT116 cells assessed as cell growth at 1 uM after 48 hrs by sulforhodamine B assay relative to control; details: HCT-116, 48 h, read-out: Activity
SR = test: Cytotoxicity against human SR cells assessed as cell growth at 100 uM after 48 hrs by sulforhodamine B assay relative to control; details: read-out: Activity
KM12 [8] = test: Cytotoxicity against human KM12 cells assessed as cell growth at 10 uM after 48 hrs by sulforhodamine B assay relative to control; details: KM12, 48 h, read-out: Activity
TK-10 [9] = test: Cytotoxicity against human TK10 cells assessed as cell growth at 100 uM after 48 hrs by sulforhodamine B assay relative to control; details: TK-10, 48 h, read-out: Activity
KM12 [10] = test: Cytotoxicity against human KM12 cells assessed as cell growth at 100 uM after 48 hrs by sulforhodamine B assay relative to control; details: KM12, 48 h, read-out: Activity
SF-268 = test: Cytotoxicity against human SF268 cells assessed as cell growth at 100 uM after 48 hrs by sulforhodamine B assay relative to control; details: SF-268, 48 h, read-out: Activity
NCI-H322M = test: Cytotoxicity against human NCI-H322M cells assessed as cell growth at 100 uM after 48 hrs by sulforhodamine B assay relative to control; details: read-out: Activity
M14 = test: Cytotoxicity against human M14 cells assessed as cell growth at 0.1 uM after 48 hrs by sulforhodamine B assay relative to control; details: M14, 48 h, read-out: Activity
MOLT-4 = test: Cytotoxicity against human MOLT4 cells assessed as cell growth at 1 uM after 48 hrs by sulforhodamine B assay relative to control; details: MOLT-4, 48 h, read-out: Activity
UACC-257 [11] = test: Cytotoxicity against human UACC257 cells assessed as cell growth at 0.01 uM after 48 hrs by sulforhodamine B assay relative to control; details: UACC-257, 48 h, read-out: Activity
SK-OV-3 = test: Cytotoxicity against human SKOV3 cells assessed as cell growth at 1 uM after 48 hrs by sulforhodamine B assay relative to control; details: SK-OV-3, 48 h, read-out: Activity
U-251 = test: Cytotoxicity against human U251 cells assessed as cell growth at 100 uM after 48 hrs by sulforhodamine B assay relative to control; details: U-251, 48 h, read-out: Activity
PC-3 = test: Cytotoxicity against human PC3 cells assessed as cell growth at 1 uM after 48 hrs by sulforhodamine B assay relative to control; details: PC-3, 48 h, read-out: Activity
COLO 205 = test: Cytotoxicity against human COLO205 cells assessed as cell growth at 10 uM after 48 hrs by sulforhodamine B assay relative to control; details: COLO 205, 48 h, read-out: Activity
NCI-H23 = test: Cytotoxicity against human NCI-H23 cells assessed as cell growth at 10 uM after 48 hrs by sulforhodamine B assay relative to control; details: NCI-H23, 48 h, read-out: Activity

Row | Compound | growth at 0.01 µM (SK-MEL-5) [%] | LC50 (NCI-H460 [1]) [µM] | TGI (NCI-H460 [1]) [µM] | growth at 10 µM (UACC-257 [3]) [%] | growth at 0.01 µM (A498) [%] | growth at 10 µM (OVCAR-5) [%] | growth at 100 µM (MDA-MB-231) [%] | growth at 0.1 µM (HCC 2998) [%] | growth at 0.01 µM (OVCAR-3) [%] | LC50 (UACC-62) [µM] | TGI (UACC-62) [µM] | growth at 10 µM (Hs-578T) [%] | growth at 1 µM (TK-10 [4]) [%] | growth at 0.01 µM (K562) [%] | growth at 0.1 µM (NCI-H460 [5]) [%] | growth at 1 µM (UO-31) [%] | growth at 1 µM (MCF7 [6]) [%] | growth at 0.1 µM (TK-10 [7]) [%] | growth at 1 µM (HCT-116) [%] | growth at 100 µM (SR) [%] | also measured
1 | COc1ccc(-c2cc(/C=C/C(=O)c3ccc4c(c3)OCO4)[nH]n2)cc1OC |  |  |  |  |  |  |  |  |  |  |  |  |  |  |  |  |  |  |  |  | GI50 (NCI-H460 [1]): 0.6 µM; GI50 (UACC-62): 1.86 µM; GI50 (DU-145): 1.64 µM; GI50 (SF-539): 0.52 µM; GI50 (HT-29): 1.38 µM
2 | COc1cc(C(=O)/C=C/c2cc(-c3cc(OC)c(OC)c(OC)c3)n[nH]2)cc(OC)c1OC | 96 | 9.91 | 4.33 | -93 | 95 | -91 | -96 | 101 | 107 | 7.6 | 3.68 | 10 | 80 | 99 | 104 | 62 | 40 | 109 | 70 | 7 | growth at 100 µM (MCF7 [2]): -72%; growth at 10 µM (KM12 [8]): -90%; growth at 100 µM (TK-10 [9]): -99%; growth at 100 µM (KM12 [10]): -81%; growth at 100 µM (SF-268): -75%; growth at 100 µM (NCI-H322M): -99%; growth at 0.1 µM (M14): 109%; LC50 (concentration killing 50% of cells) (SF-539): 6.23 µM; TGI (SF-539): 2.83 µM; growth at 1 µM (MOLT-4): 81%; growth at 0.01 µM (UACC-257 [11]): 94%; growth at 1 µM (SK-OV-3): 96%; LC50 (HT-29): 6.36 µM; TGI (HT-29): 3.37 µM; growth at 100 µM (U-251): -99%; growth at 1 µM (PC-3): 74%; growth at 10 µM (COLO 205): -100%
3 | COc1cc(-c2cc(/C=C/C(=O)c3ccc(Cl)c(Cl)c3)[nH]n2)cc(OC)c1OC | 98 | > 100 | 36.6 | 66 | 84 | 65 | 2 | 97 | 103 | > 100 | > 100 | 63 | 93 | 99 | 105 | 81 | 62 | 91 | 80 | -51 | growth at 10 µM (KM12 [8]): 19%; growth at 10 µM (NCI-H23): 79%; growth at 100 µM (TK-10 [9]): -27%; growth at 100 µM (KM12 [10]): 3%; growth at 100 µM (SF-268): -15%; growth at 100 µM (NCI-H322M): 5%; growth at 0.1 µM (M14): 94%; LC50 (concentration killing 50% of cells) (SF-539): 57.8 µM; TGI (SF-539): 18.7 µM; growth at 1 µM (MOLT-4): 97%; growth at 0.01 µM (UACC-257 [11]): 96%; growth at 1 µM (SK-OV-3): 89%; LC50 (HT-29): > 100 µM; TGI (HT-29): > 100 µM; growth at 100 µM (U-251): -5%; growth at 1 µM (PC-3): 87%; growth at 10 µM (COLO 205): 10%
4 | COc1cc(-c2cc(/C=C/C(=O)c3ccc(F)c(F)c3)[nH]n2)cc(OC)c1OC | 98 | 80.4 | 8.24 | -18 | 100 | 27 | -49 | 92 | 102 | 35.3 | 7.44 | 21 | 85 | 100 | 102 | 84 | 99 | 88 | 113 | 8 | growth at 100 µM (MCF7 [2]): -20%; growth at 10 µM (KM12 [8]): 3%; growth at 10 µM (NCI-H23): -7%; growth at 100 µM (TK-10 [9]): -37%; growth at 100 µM (KM12 [10]): -48%; growth at 100 µM (SF-268): 1%; growth at 100 µM (NCI-H322M): 3%; growth at 0.1 µM (M14): 91%; LC50 (concentration killing 50% of cells) (SF-539): 70 µM; TGI (SF-539): 17.7 µM; growth at 1 µM (MOLT-4): 91%; growth at 0.01 µM (UACC-257 [11]): 88%; growth at 1 µM (SK-OV-3): 90%; LC50 (HT-29): 40.8 µM; TGI (HT-29): 6.46 µM; growth at 100 µM (U-251): -29%; growth at 1 µM (PC-3): 70%; growth at 10 µM (COLO 205): -90%
